Laboratory results from patent publication US20260234159A1, “SMALL MOLECULE TREATMENT OF FATTY LIVER DISEASE AND HCC” (SCANDIEDGE THERAPEUTICS AB, priority 2023, published 2026).

What was measured:
Assay type in all cases: cell-based, human
HepG2 cells [1] = assay: Autophagy assay; conditions: 10 μM, one day
Experimental: HepG2 cells were seeded into a 6-well plate at 400,000 cells per well. After treatment with the compounds at desired concentration and time, TMRE (ab113852, abcam), Autophagy (ab139484, abcam), ROS (ab113851, abcam), and Lipid peroxidation (ab243377, abcam) assay were performed according to manufacturer's instructions. Fluorescence images were taken using ZOE™ Fluorescent Cell Imager (Biorad) and ROI of fluorescence intensity was measured and calculated by Image J. For microplate reader florescence assay, 40,000 of HepG2 cells were seeded into a 96-well plate and triplicated. GFP (Ex480 nm, Em530 nm) and RFP (Ex549 nm, Em574 nm) were measured using a microplate reader (Hidex Sense Meta Plus).

p21 = assay: Nuclear protein western blot, p21; conditions: 10 μM, 2 days
Experimental: HepG2 cells were seeded into a 6-well plate at 400,000 cells per well. After treatment with 10 μM of JNK-IN-5A and its derivatives for two days, lysates were harvested with CelLytic M (C2978, Sigma-Aldrich). 20 μg lysate was prepared with 2× Laemmli Sample Buffer (1610737, Biorad). SDS PAGE were performed using Mini-PROTEAN® TGX™ Precast Gels (Bio-Rad) and transferred using Trans-Blot® Turbo™ Transfer System (Bio-Rad). Primary antibody, PARP (95425, Cell signalling), Caspase 3 (ab32042, abcam), Bcl-2 (ab182858), STAT1 (HPA000982, Merk), PKL (06653, Sigma), PKM (4053S, Cell signalling), GAPDH (ab8245, abcam), P53 (ab32389, abcam), p21 (ab109199, abcam), p-S349 p62 (ab211324, abcam), p62 (ab109012, abcam), c-Myc (ab32072, abcam), GPX4 (ab125066, abcam), MMP9 (MA5-32705, Invitrogen), β-actin (ab8227, abcam), and α-tubulin (ab7291, abcam) were blotted overnight and Goat Anti-Rabbit HRP (ab205718) and goat anti-mouse IgG-HRP (sc2005, Santa Cruz Biotechnology, Inc.) were blotted for secondary antibody for one hour. ImageQuantTMLAS 500 (29-0050-63, GE) was used to detect protein bands.

HepG2 cells [2] = assay: MTT cell viability after one week steatosis (ranking of target molecules)
Method in brief: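 HepG2 cells, 60,000 per well, kept one week in steatosis medium (high-glucose DMEM, 10 μg/ml insulin, 10 μM T0901317) with 10 μM compound. Medium changed at day 0, 3 and 5. Viability measured by MTT.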

Structure (SMILES): N#Cc1c(NC(=O)c2cccc3ccccc23)sc2c1CCCC2 [JNK-IN-5A, N-(3-cyano-4,5,6,7-tetrahydrobenzo[b]thiophen-2-yl)-1-naphthamide]
- autophagy GFP signals (HepG2 cells [1]): significantly increased
- p21 nuclear localization (p21): localized in the nucleus

Structure (SMILES): N#Cc1c(NC(=O)c2cccc3ccccc23)sc2c1CCN(C(=O)Nc1ccccc1OC(F)(F)F)C2 [PKL-A159]
- cell viability of HepG2 (HepG2 cells [2]): exceptionally low cell viability
